# Tested on: patient-derived HCC xenograft lines (07-0409, 29-0909A, 01-0909)
# Assay: Patient-derived HCC xenograft models in SCID mice
# Conditions: for tumor growth rate of xenografts / tumor regressions: single agent therapy, 30 mg/kg Compound of Formula I or 5 mg/kg RAD001 orally daily, HCC07-0409
# [1] = 30 mg/kg Compound of Formula I orally daily, SCID mice
# Experimental: Xenograft models: All mice were provided with sterilized food and water ad libitum and housed in negative pressure isolators with 12 hours light/dark cycle. Primary HCCs have previously been used to create xenograft lines, of which the following lines (07-0409, 29-0909A, 01-0909) were used to establish tumors in male SCID mice (Animal Resources Centre, Canning Vale, Western Australia) aged 9 to 10 weeks.
# Tumor treatment: Compound of Formula I and RAD001 was dissolved in vehicle at an appropriate concentration before treatment. Mice bearing indicated tumors were orally administered 5 mg/kg RAD001 or 30 mg/kg Compound of Formula I daily, or two compounds combined for indicated days. Each treatment group was comprised of 10 animals and each experiment was repeated at least twice. Treatment started on day 7 after tumor implantation. By this time, the tumors reached the size of approximately 100 mm^3. Tumor growth was monitored and tumor volume was calculated as described. At the end of the study, the mice were sacrificed with body and tumor weights recorded and the tumors harvested for analysis. The efficacy of Compound of Formula I was determined by T/C ratio, where T and C are median weight of drug-treated and vehicle-treated tumor respectively at the end of treatment.
SMILES,tumor growth rate of xenografts,tumor regressions,acute mortality throughout treatment [1],body weight loss throughout treatment [1],"anti-tumor activities on patient-derived HCC xenograft lines (lines 07-0409, 29-0909A, 01-0909, 30 mg/kg orally daily)"
"CO[C@H]1C[C@@H]2CC[C@@H](C)[C@@](O)(O2)C(=O)C(=O)N2CCCC[C@H]2C(=O)O[C@H]([C@H](C)C[C@@H]2CC[C@@H](OCCO)[C@H](OC)C2)CC(=O)[C@H](C)/C=C(\C)[C@@H](O)[C@@H](OC)C(=O)[C@H](C)C[C@H](C)/C=C/C=C/C=C/1C [RAD001, 40-O-(2-hydroxy)ethyl-rapamycin, reference compound]",inhibited,did not induce tumor regressions,–,–,–
"CN1CCN(c2ccc3nc(-c4c(N)c5c(F)cccc5[nH]c4=O)[nH]c3c2)CC1 [Compound of Formula I, 4-Amino-5-fluoro-3-[6-(4-methylpiperazin-1-yl)-1H-benzimidazol-2-yl]-1H-quinolin-2-one]",inhibited,did not induce tumor regressions,no acute mortality,no significant weight loss,observed
